# According to US20250290117A1, “MOLECULAR PHENOTYPIC ANTIMICROBIAL SUSCEPTIBILITY TESTING” (priority 2024, published 2025):
# Columns and labels:
# [1] = system: E. coli; test: Molecular phenotypic antimicrobial susceptibility test, specimen with two detected pathogens incubated together without isolation; type: cell-based, Escherichia coli; conditions: E. coli in specimen with two detected pathogens (E. coli and M. morganii) incubated together; for Ct of Sensitive Breakpoint: Ct of controls (average) 15.93; for Molecular Antimicrobial Susceptibility Result: at sensitive breakpoint
# Experimental: Detection of Molecular Phenotypic Antimicrobial Susceptibility. Disclosed herein are the methods for the detection of phenotypic antimicrobial susceptibility via molecular methods. The present invention describes how a specimen 100 with a known microbial load is incubated and then exposed to a panel of antimicrobial agents to determine sensitivity (prevention of growth) or resistance (allowance of growth) to the specific antimicrobial agents tested utilizing molecular methods.
# Sample Collection. Specimens 100 are collected from patients using sterile collection processes that are employed in routine clinical care. Specimens are transported to the testing facility in boric acid preservative. Specimens 100 are subsequently divided into a first sample 104 and a second sample 108.
# Preparation of the Specimens for Testing. The specimens 100 are put through a pathogen identification process using PCR technology (e.g., using the first sample 104). The process for pathogen isolation includes steps of harvesting the pathogen (e.g., via centrifugation), isolating pathogen DNA via a DNA isolation and/or purification kit, and performing PCR on the pathogen DNA via PCR components (e.g., primers, enzymes, buffers) as would be known to the skilled artisan. Simultaneously, an additional aliquot of the same specimen (e.g., the second sample 108) is placed with liquid culture media and incubated for 4-6 hours. This aliquot is used for antimicrobial susceptibility testing if indicated based on the pathogen detection results. After pathogen identification is completed and if more than 10,000 cells/mL of bacteria (e.g., eligible bacteria) are detected in the source specimen, the second sample 108 then enters the antimicrobial susceptibility phase of testing. Specimens 100 with lower pathogen loads could also be utilized in the antibiotic susceptibility phase of testing with or without a longer incubation period.
# Preparation of Antimicrobial Susceptibility Testing Plates. Antimicrobial solutions are prepared at known concentrations. The specific antimicrobials and their concentrations are selected based on the pathogen of interest and the described antimicrobial resistance breakpoints for that specimen pathogen and antimicrobial combination. These antimicrobials have been selected based on those commonly utilized by healthcare providers in routine clinical care for the specific type of suspected infection. The number and types of antimicrobials utilized can be customized based on the infection source, pathogen detected, patient-specific factors such as allergies or other health conditions (e.g., chronic kidney disease or concurrent medication use), or healthcare provider preferences such as antimicrobial availability or cost.
# The antimicrobial solutions are prepared in liquid culture media (such as Muller Hinton Broth) to achieve the desired antimicrobial concentration and are then stored at −80° C. until use. For a given specimen, each antimicrobial is tested at a single or multiple antimicrobial concentration(s) which is its established breakpoints for sensitivity. The antimicrobial solutions are prepared and plated out for each specific pathogen. This allows ease of use on the day of testing after defrosting the plate 112. Table 1, which illustrates the results of molecular phenotypic antimicrobial susceptibility testing when more than one organism is present in the source specimen, provides an example of an antimicrobial plate 112 prepared for this purpose. Of note, control wells containing only culture media are present on all plates 112. This allows for evaluation of pathogen load when no antimicrobial is present.
# Specimen Exposure to Antimicrobial Agents. The 1 mL aliquot of the specimen 100 previously mixed with culture media and incubated is obtained. Using optical density measurements as a guide, the specimen 100 is diluted to 0.5 McFarland. […]
# [2] = system: pathogen of the specimen; test: Molecular phenotypic antimicrobial susceptibility test with direct PCR at various incubation timepoints (Table 7); type: cell-based
# Experimental: Detection of Molecular Phenotypic Antimicrobial Susceptibility. Disclosed herein are the methods for the detection of phenotypic antimicrobial susceptibility via molecular methods. The present invention describes how a specimen 100 with a known microbial load is incubated and then exposed to a panel of antimicrobial agents to determine sensitivity (prevention of growth) or resistance (allowance of growth) to the specific antimicrobial agents tested utilizing molecular methods. Sample Collection. Specimens 100 are collected from patients using sterile collection processes that are employed in routine clinical care. Specimens are transported to the testing facility in boric acid preservative. […] The process for pathogen isolation includes steps of harvesting the pathogen (e.g., via centrifugation), isolating pathogen DNA via a DNA isolation and/or purification kit, and performing PCR on the pathogen DNA via PCR components (e.g., primers, enzymes, buffers) as would be known to the skilled artisan. […] This aliquot is used for antimicrobial susceptibility testing if indicated based on the pathogen detection results. […] Specimens 100 with lower pathogen loads could also be utilized in the antibiotic susceptibility phase of testing with or without a longer incubation period. […] Antimicrobial solutions are prepared at known concentrations. The specific antimicrobials and their concentrations are selected based on the pathogen of interest and the described antimicrobial resistance breakpoints for that specimen pathogen and antimicrobial combination. These antimicrobials have been selected based on those commonly utilized by healthcare providers in routine clinical care for the specific type of suspected infection. The number and types of antimicrobials utilized can be customized based on the infection source, pathogen detected, patient-specific factors such as allergies or other health conditions (e.g., chronic kidney disease or concurrent medication use), or healthcare provider preferences such as antimicrobial availability or cost. The antimicrobial solutions are prepared in liquid culture media (such as Muller Hinton Broth) to achieve the desired antimicrobial concentration and are then stored at −80° C. until use. For a given specimen, each antimicrobial is tested at a single or multiple antimicrobial concentration(s) which is its established breakpoints for sensitivity. The antimicrobial solutions are prepared and plated out for each specific pathogen. […] This allows for evaluation of pathogen load when no antimicrobial is present. Specimen Exposure to Antimicrobial Agents. The 1 mL aliquot of the specimen 100 previously mixed with culture media and incubated is obtained. Using optical density measurements as a guide, the specimen 100 is diluted to 0.5 McFarland. […] Antimicrobial exposure plates are typically placed into an incubator for 12-16 hours. […] Nucleic Acid Amplification of Antimicrobial Agent Exposed Pathogens. The antimicrobial exposure plate is removed after the period of incubation. The specimen then undergoes a purification or lysis step. For example, the specimen may undergo a purification step (e.g., magnetic bead-based or other separation protocol to isolate genetic material). In another example, the specimen may undergo a cell lysis step. For example, buffer (e.g., lysis buffer) may be added and incubated in the thermal cycler for preparation for direct PCR. Next, the specimen may undergo a polymerase chain reaction (PCR) testing protocol, whereby a semi-quantitative PCR method is utilized. This may be completed either with or without a specific extraction protocol step. The pathogens can be individually targeted and detected, or a universal genetic sequence can be utilized to detect the antimicrobial susceptibility of the specimen as a whole. The control wells are utilized as a threshold for determining antimicrobial sensitivity or resistance. […] Antimicrobial Susceptibility Result Interpretation.
# [3] = E. coli isolate 1189, antibiotic incubation time 4 hours
# [4] = E. coli isolate 1189, antibiotic incubation time 6 hours
# [5] = E. coli isolate 1189, antibiotic incubation time 6 hours, control average Ct 16.992
# [6] = E. coli isolate 1189, antibiotic incubation time 8 hours
# [7] = E. coli isolate 1189, antibiotic incubation time 10 hours
# [8] = E. coli isolate 1189, antibiotic incubation time 12 hours
# [9] = E. coli isolate 1189, antibiotic incubation time 12 hours, control average Ct 15.495
# [10] = E. coli isolate 1189, antibiotic incubation time 14 hours
# [11] = E. coli isolate 1189, antibiotic incubation time 14 hours, control average Ct 15.826
# [12] = E. coli isolate 1189, antibiotic incubation time 16 hours
# [13] = E. coli isolate 1189, antibiotic incubation time 16 hours, control average Ct 14.880
# [14] = E. coli isolate 1189, antibiotic incubation time 4 hours, control average Ct […]
# [15] = E. coli isolate 1189, antibiotic incubation time 8 hours, control average Ct […]
# [16] = E. coli isolate 1189, antibiotic incubation time 10 hours, control average Ct 15.995
Molecule,Ct of Sensitive Breakpoint [1],Molecular Antimicrobial Susceptibility Result [1],"Molecular Antimicrobial Susceptibility Result [2, 3]","Molecular Antimicrobial Susceptibility Result [2, 4]","Ct at Sensitive Breakpoint [2, 5]","Molecular Antimicrobial Susceptibility Result [2, 6]","Molecular Antimicrobial Susceptibility Result [2, 7]","Molecular Antimicrobial Susceptibility Result [2, 8]","Ct at Sensitive Breakpoint [2, 9]","Molecular Antimicrobial Susceptibility Result [2, 10]","Ct at Sensitive Breakpoint [2, 11]","Molecular Antimicrobial Susceptibility Result [2, 12]","Ct at Sensitive Breakpoint [2, 13]","Ct at Sensitive Breakpoint [2, 14]","Ct at Sensitive Breakpoint [2, 15]","Ct at Sensitive Breakpoint [2, 16]"
CC1(C)S[C@@H]2[C@H](NC(=O)[C@H](N)c3ccccc3)C(=O)N2[C@H]1C(=O)O [Ampicillin],15.14,Resistant,Resistant,Resistant,15.362,Resistant,Resistant,Resistant,15.183,Resistant,15.465,Resistant,15.036,,,
Cc1nnc(SCC2=C(C(=O)O)N3C(=O)[C@@H](NC(=O)Cn4cnnn4)[C@H]3SC2)s1 [Cefazolin],15.46,Resistant,Resistant,Resistant,16.328,Resistant,Resistant,Resistant,15.126,Resistant,17.599,Resistant,15.199,16.209,17.305,15.756
CO/N=C(\C(=O)N[C@@H]1C(=O)N2C(C(=O)[O-])=C(C[N+]3(C)CCCC3)CS[C@H]12)c1csc(N)n1 [Cefepime],26.80,Sensitive (Antimicrobial wells with pathogen load detected below the control wells (typically >2 cycle thresholds later) may be reported as Sensitive),Sensitive (Antimicrobial wells with pathogen load detected below the control wells (typically >2 cycle thresholds later) may be reported as Sensitive),Sensitive (Antimicrobial wells with pathogen load detected below the control wells (typically >2 cycle thresholds later) may be reported as Sensitive),20.178,Sensitive (Antimicrobial wells with pathogen load detected below the control wells (typically >2 cycle thresholds later) may be reported as Sensitive),Sensitive (Antimicrobial wells with pathogen load detected below the control wells (typically >2 cycle thresholds later) may be reported as Sensitive),Sensitive (Antimicrobial wells with pathogen load detected below the control wells (typically >2 cycle thresholds later) may be reported as Sensitive),22.447,Sensitive (Antimicrobial wells with pathogen load detected below the control wells (typically >2 cycle thresholds later) may be reported as Sensitive),22.420,Sensitive (Antimicrobial wells with pathogen load detected below the control wells (typically >2 cycle thresholds later) may be reported as Sensitive),23.502,20.399,21.204,21.613
CO[C@@]1(NC(=O)Cc2cccs2)C(=O)N2C(C(=O)O)=C(COC(N)=O)CS[C@@H]21 [Cefoxitin],18.30,Sensitive (Antimicrobial wells with pathogen load detected below the control wells (typically >2 cycle thresholds later) may be reported as Sensitive),Resistant,Resistant,15.865,Resistant,Resistant,Resistant,15.750,Resistant,15.333,Resistant,13.704,17.798,16.837,14.899
C[C@@H]1O[C@@H]1P(=O)(O)O [Fosfomycin],29.24,Sensitive (Antimicrobial wells with pathogen load detected below the control wells (typically >2 cycle thresholds later) may be reported as Sensitive),,,,,,,,,,,,,,
CN(C)[C@@H]1C(O)=C(C(N)=O)C(=O)[C@@]2(O)C(O)=C3C(=O)c4c(O)cccc4[C@@](C)(O)[C@H]3C[C@@H]12 [Tetracycline],14.55,Resistant,,,,,,,,,,,,,,
Ampicillin/Sulbactam,14.58,Resistant,,,,,,,,,,,,,,
